Where “and” joins values, the source holds several entries; their conditions need not be identical. Identical values can stand only once. Like-named read-outs stand apart in the source and are kept apart here.
Key:
hERG channels = molecular target: T1, hERG channels (Homo sapiens, UniProt Q12809); test: Qpatch hERG assay (automated patch clamp, whole-cell tail current); assay type: cell-based; conditions: CHO cell line stably expressing hERG channels; highest test concentration 30 μM
T1 construct: expressed in transfected cells
T1 sequence (Q12809 whole entry): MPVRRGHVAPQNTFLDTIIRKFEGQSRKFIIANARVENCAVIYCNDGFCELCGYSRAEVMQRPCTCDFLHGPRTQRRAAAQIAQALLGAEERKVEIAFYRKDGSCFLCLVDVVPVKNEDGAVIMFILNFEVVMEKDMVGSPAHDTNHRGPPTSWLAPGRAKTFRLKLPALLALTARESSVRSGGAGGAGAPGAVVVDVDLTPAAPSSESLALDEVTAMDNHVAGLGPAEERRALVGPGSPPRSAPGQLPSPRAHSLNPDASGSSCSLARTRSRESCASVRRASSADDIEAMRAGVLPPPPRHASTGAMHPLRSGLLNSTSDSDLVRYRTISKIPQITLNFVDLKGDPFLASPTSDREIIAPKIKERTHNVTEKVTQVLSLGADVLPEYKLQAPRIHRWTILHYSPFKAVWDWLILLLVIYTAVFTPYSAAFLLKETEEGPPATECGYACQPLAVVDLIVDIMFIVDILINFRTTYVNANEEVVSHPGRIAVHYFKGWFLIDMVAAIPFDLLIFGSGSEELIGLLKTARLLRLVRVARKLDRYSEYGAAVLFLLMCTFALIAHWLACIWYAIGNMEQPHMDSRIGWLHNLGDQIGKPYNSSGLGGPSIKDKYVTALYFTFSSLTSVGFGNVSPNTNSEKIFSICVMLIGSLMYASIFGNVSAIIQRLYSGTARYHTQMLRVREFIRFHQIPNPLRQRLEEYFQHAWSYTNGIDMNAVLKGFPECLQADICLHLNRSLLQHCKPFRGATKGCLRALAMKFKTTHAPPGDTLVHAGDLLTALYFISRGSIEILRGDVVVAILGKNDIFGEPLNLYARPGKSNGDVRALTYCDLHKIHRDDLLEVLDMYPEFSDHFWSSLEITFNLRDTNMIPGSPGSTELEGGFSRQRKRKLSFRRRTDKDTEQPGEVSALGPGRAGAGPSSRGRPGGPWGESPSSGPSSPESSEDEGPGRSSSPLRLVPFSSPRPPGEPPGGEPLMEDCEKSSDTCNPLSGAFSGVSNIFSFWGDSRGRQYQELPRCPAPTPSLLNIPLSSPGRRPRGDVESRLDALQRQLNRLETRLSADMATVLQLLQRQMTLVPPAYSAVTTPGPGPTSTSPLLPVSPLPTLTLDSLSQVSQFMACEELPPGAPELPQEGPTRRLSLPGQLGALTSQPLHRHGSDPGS
Method: • Assay platform & method: Automated patch clamp (Qpatch-48) • Cell source: CHO cell line stably expressing hERG channels • Measured parameter: Whole-cell tail current of hERG channels • Test concentration: 6 concentrations (30, 10, 3, 1, 0.3, 0.1 μM)
Example: Qpatch hERG Assay

Sgk2 = molecular target: T2, Sgk2 (Homo sapiens, UniProt Q9HBY8); test: Enzyme based assay for SGK2 (biotinylated Akt Substrates-2 peptide, Eu3+ Cryptate/XL665 detection); assay type: biochemical
T2 sequence (Q9HBY8 1-367): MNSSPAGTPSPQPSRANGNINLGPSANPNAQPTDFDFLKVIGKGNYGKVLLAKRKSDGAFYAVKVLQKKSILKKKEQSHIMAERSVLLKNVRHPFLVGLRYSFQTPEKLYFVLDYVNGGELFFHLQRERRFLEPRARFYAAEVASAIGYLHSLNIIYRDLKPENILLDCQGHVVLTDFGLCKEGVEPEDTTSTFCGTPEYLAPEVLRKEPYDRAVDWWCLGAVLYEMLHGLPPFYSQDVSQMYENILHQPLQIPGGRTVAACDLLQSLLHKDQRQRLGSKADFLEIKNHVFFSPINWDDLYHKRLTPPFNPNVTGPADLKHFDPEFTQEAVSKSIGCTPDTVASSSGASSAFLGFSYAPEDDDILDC
Method: (§1) 1. Enzyme Based Assays for SGK1, SGK2, SGK3, and Akt1
(§2) The kinase enzymatic reaction is carried out with a biotinylated Akt Substrates-2 peptide substrate. The phosphorylated substrate is then detected using a specific anti-phospho peptide antibody which is coupled with Eu^3+ Cryptate and XL665 conjugated with streptavidin.
(§3) Exemplary Assay Conditions
(§4) • Enzyme: ˜0.1 nM • Substrate: 0.2 μM • ATP: 50 μM and 1 mM • Mg^2+: 10 mM • Reaction time: 60 min with 50 μM ATP and 30 min with 1 mM ATP • SA-XL to Biotin: 1:10
(§5) Detailed Steps • 1. prepare the enzyme and substrate solution with the buffer from Cisbio • 2. add the enzyme and substrate solution to the diluted compound plate • 3. transfer 5 μL of compound, enzyme, and substrate mixture to an 384-well assay plate • 4. add 5 μL ATP (with Mg^2+) solution to initiate the reaction • 5. after certain time, add 10 μL of stop solution containing SA-XL and specific antibody • 6. read the plate after 2 h incubation at rt • 7. process the data using prizm software (Exemplary results are shown in FIG. 1.) 2. PK Studies Protocol

Sgk1 = molecular target: T3, Sgk1 (Homo sapiens, UniProt O00141); test: Enzyme based assay for SGK1 (biotinylated Akt Substrates-2 peptide, Eu3+ Cryptate/XL665 detection); assay type: biochemical
T3 sequence (O00141 1-431): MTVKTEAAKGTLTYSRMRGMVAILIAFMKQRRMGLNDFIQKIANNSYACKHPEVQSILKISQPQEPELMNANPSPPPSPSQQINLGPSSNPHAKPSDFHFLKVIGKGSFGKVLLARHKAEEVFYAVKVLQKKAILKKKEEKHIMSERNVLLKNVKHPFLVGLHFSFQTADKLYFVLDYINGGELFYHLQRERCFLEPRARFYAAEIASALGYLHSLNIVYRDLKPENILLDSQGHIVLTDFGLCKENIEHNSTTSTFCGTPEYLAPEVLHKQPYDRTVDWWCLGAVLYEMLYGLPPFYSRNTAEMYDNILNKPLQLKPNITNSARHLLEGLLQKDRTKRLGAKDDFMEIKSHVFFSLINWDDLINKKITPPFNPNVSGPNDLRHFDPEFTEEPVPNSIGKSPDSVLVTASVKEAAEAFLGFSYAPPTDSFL
Method: as §1, §2, §3, §4, §5

HeLa = HeLa cell testing (Table 2); assay type: cell-based; conditions: Homo sapiens; HeLa cells
293T = 293T cell testing (Table 2); assay type: cell-based; conditions: Homo sapiens, HEK-293T; 293T cells
293T_O = 293T_O cell testing (Table 2); assay type: cell-based; conditions: 293T_O cells
Sgk3 = molecular target: T4, Sgk3 (Homo sapiens, UniProt Q96BR1); test: Enzyme based assay for SGK3; assay type: biochemical
T4 sequence (Q96BR1 1-496): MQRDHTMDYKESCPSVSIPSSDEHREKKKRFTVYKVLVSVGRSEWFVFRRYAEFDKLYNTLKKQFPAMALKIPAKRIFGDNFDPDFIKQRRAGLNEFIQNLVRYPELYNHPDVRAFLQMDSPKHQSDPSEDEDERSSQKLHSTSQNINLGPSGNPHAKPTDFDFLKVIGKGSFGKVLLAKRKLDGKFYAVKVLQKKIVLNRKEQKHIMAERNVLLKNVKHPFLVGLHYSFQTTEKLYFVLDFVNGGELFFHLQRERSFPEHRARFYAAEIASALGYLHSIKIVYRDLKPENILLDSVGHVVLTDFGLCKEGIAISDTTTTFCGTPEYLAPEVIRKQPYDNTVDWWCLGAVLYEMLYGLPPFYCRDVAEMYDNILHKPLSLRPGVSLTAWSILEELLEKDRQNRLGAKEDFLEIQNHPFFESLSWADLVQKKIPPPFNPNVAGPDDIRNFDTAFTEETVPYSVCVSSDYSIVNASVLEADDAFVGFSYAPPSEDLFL
Method: as §1, §2, §3, §4, §5

[1] = PK study in male ICR mice, intravenous and oral administration, plasma concentration; assay type: in vivo; conditions: for MRT inf: read-out: MRT(0-∞)
From the text: 3 Male mice/group, 8 groups total with Intravenous and Oral Administration, then measure the compound concentration in plasma.
Selected Pharmacokinetics Parameters of Compound N in Male ICR Mice Following Intravenous and Oral Administration

[2] = 50 μM ATP, read-out: Sgk2 (50 μM ATP)
[3] = 1 mM ATP, read-out: Sgk2 (1 mM ATP)
[4] = 50 μM ATP, read-out: Sgk1 (50 μM ATP)
[5] = 1 mM ATP, read-out: Sgk1 (1 mM ATP)

Compound	IC50 (Sgk2; [2])	IC50 (Sgk2; [3])	IC50 (Sgk1; [4])	IC50 (Sgk1; [5])	IC50 (HeLa)	IC50 (Sgk3)	IC50 (293T)	IC50 (293T_O)	further results
COc1ccc(F)c(S(=O)(=O)Nc2ccc(-c3ccc4c(N)n[nH]c4n3)cc2)c1 [J, N-(4-(3-amino-1H-pyrazolo[3,4-b]pyridin-6-yl)-phenyl)-2-fluoro-5-methoxybenzenesulfonamide]									IC50 (hERG channels): > 30 µM
O=S(=O)(Nc1ccc(-c2ccc3cn[nH]c3c2)cc1)c1cc(Cl)ccc1F	0.0321 µM	0.664 µM	0.124 µM	0.352 µM	2.47 µM				
COc1ccc(Cl)c(S(=O)(=O)Nc2ccc(-c3ccc4c(N)n[nH]c4n3)cc2)c1	0.0021 µM	0.0651 µM	0.0126 µM	0.0677 µM	21.9 µM		60.7 µM	45.5 µM	
COc1ccc(F)c(S(=O)(=O)Nc2ccc(-c3ccc4c(N)n[nH]c4c3)nc2)c1 [Compound N, N-(6-(3-amino-1H-indazol-6-yl)pyridin-3-yl)-2-fluoro-5-methoxybenzenesulfonamide]									CLz ([1]; IV (2 mg/kg)): 0.17 mL/min/kg; t1/2z ([1]; IV (2 mg/kg)): 6.99 h; t1/2z ([1]; PO (20 mg/kg)): 17.27 h; F ([1]; PO (20 mg/kg), F is calculated from AUC(0-t)): 63.37%; AUC(0-inf) ([1]; mouse, plasma, IV (2 mg/kg)): 165 µg·h/mL; AUC(0-t) ([1]; mouse, plasma, IV (2 mg/kg)): 151 µg·h/mL; Cmax ([1]; mouse, plasma, IV (2 mg/kg)): 29.1 µg/mL; Tmax ([1]; mouse, plasma, IV (2 mg/kg)): 0.08 h; MRT inf ([1]; mouse, plasma, IV (2 mg/kg)): 8.84 h; Vd ([1]; mouse, plasma, IV (2 mg/kg), read-out: Vz): 0.12 L/kg; AUC(0-inf) ([1]; mouse, plasma, PO (20 mg/kg)): 1530 µg·h/mL; AUC(0-t) ([1]; mouse, plasma, PO (20 mg/kg)): 957 µg·h/mL; Cmax ([1]; mouse, plasma, PO (20 mg/kg)): 71.9 µg/mL; Tmax ([1]; mouse, plasma, PO (20 mg/kg)): 0.25 h; MRT inf ([1]; mouse, plasma, PO (20 mg/kg)): 24.1 h
COc1ccc(F)c(S(=O)(=O)Nc2ccc(-c3cnc4cn[nH]c4c3)cc2)c1	0.0086 µM and 0.0034 µM	> 0.2 µM		> 0.2 µM	13.8 µM		66.5 µM	> 100 µM	
COc1ccc(F)c(S(=O)(=O)Nc2ccc(-c3cc(NCC4CNCCO4)c4cn[nH]c4c3)cc2)c1 (stereo not drawn)	0.0017 µM	0.0066 µM	0.0019 µM	0.0124 µM		0.15 µM			
COc1ccc(F)c(S(=O)(=O)Nc2ccc(-c3ccc4c(N)n[nH]c4n3)cc2)c1 [drawing 140]	0.002 µM	0.0065 µM	0.0029 µM	0.0065 µM	21.4 µM	0.07 µM			
COc1ccc(F)c(S(=O)(=O)Nc2ccc(-c3cc(OC)c4c(N)n[nH]c4c3)cc2)c1 [drawing 108]	0.0051 µM	0.0089 µM	0.0024 µM	0.0178 µM		0.04 µM			
Nc1n[nH]c2nc(-c3ccc(NS(=O)(=O)c4cc(Cl)ccc4F)cc3)ccc12	0.0218 µM	0.569 µM	0.238 µM	> 2 µM	20.1 µM				
COc1ccc(F)c(S(=O)(=O)Nc2ccc(-c3cc4[nH]ncc4c(OCC4CNCCO4)n3)cc2)c1 (stereo not drawn) [drawing 105]	0.0016 µM	0.01 µM	0.0013 µM	0.0134 µM		0.1 µM			
COc1ccc(F)c(S(=O)(=O)Nc2ccc(-c3cc(OCCO)c4c(N)n[nH]c4c3)cc2)c1	0.0079 µM	0.0062 µM	0.0051 µM	0.0077 µM		0.09 µM			
COc1ccc(F)c(S(=O)(=O)Nc2ccc(-c3cc(CCC4CNCCO4)c4cn[nH]c4c3)cc2)c1 (stereo not drawn)	0.0041 µM	0.0082 µM	0.0032 µM	0.0116 µM		0.15 µM			
COc1ccc(F)c(S(=O)(=O)Nc2ccc(-c3ccc4cn[nH]c4n3)cc2)c1	0.0018 µM	0.066 µM	0.0052 µM	0.15 µM	> 50 µM				
COc1ccc(F)c(S(=O)(=O)Nc2ccc(-c3ccc4c(N)n[nH]c4c3)cc2)c1	0.0061 µM	0.016 µM	0.0109 µM	0.0358 µM	13.7 µM		56.1 µM	47.1 µM	
COc1ccc(F)c(S(=O)(=O)Nc2ccc(-c3cc4[nH]nc(N)c4cn3)cc2)c1	0.0055 µM	0.0541 µM		> 0.2 µM	68.4 µM		94.4 µM	> 100 µM	
COc1ccc(F)c(S(=O)(=O)Nc2ccc(-c3cc(C)c4c(N)n[nH]c4n3)cc2)c1 [drawing 111]	0.0041 µM	0.0037 µM	0.0028 µM	0.0055 µM		0.03 µM			

The next lines start with results.

IC50 (Sgk2; [2])	IC50 (Sgk2; [3])	IC50 (Sgk1; [4])	IC50 (Sgk1; [5])	IC50 (HeLa)	IC50 (Sgk3)	Compound	IC50 (293T)	IC50 (293T_O)	further results
0.002 µM	0.0158 µM	0.0025 µM	0.0069 µM	11.7 µM		COc1ccc(Cl)c(S(=O)(=O)Nc2ccc(-c3cc4[nH]ncc4c(OCC4CNCCO4)n3)cc2)c1 (stereo not drawn)	20.4 µM	35.1 µM	
0.0067 µM	0.068 µM	0.0032 µM	0.113 µM	6.6 µM		Nc1n[nH]c2cc(-c3ccc(NS(=O)(=O)c4cc(Cl)ccc4F)cc3)ccc12	27.6 µM	66.8 µM	
0.008 µM	0.0213 µM	0.0277 µM	0.0928 µM		0.1 µM	COCCOc1cc(-c2ccc(NS(=O)(=O)c3cc(OC)ccc3F)cc2)cc2[nH]nc(N)c12			
0.0034 µM	0.0041 µM	0.0023 µM	0.0066 µM	15.6 µM		COc1ccc(F)c(S(=O)(=O)Nc2ccc(-c3cc4[nH]ncc4c(SCC4CNCCO4)n3)cc2)c1 (stereo not drawn)	17.9 µM	24.5 µM	
0.0059 µM	0.169 µM	0.0979 µM	0.077 µM	2.17 µM		O=S(=O)(Nc1ccc(-c2ccc3cn[nH]c3n2)cc1)c1cc(Cl)ccc1F			
0.0031 µM	0.0053 µM	0.0106 µM	0.0085 µM		0.05 µM	COc1ccc(F)c(S(=O)(=O)Nc2ccc(-c3cc4[nH]nc(N)c4c(C)n3)cc2)c1 [drawing 110]			
0.0008 µM	0.0056 µM	0.0031 µM	0.0097 µM	35.8 µM		COc1ccc(F)c(S(=O)(=O)Nc2ccc(-c3cc4[nH]ncc4c(OCC4CNCCO4)n3)cc2)c1 (stereo not drawn) [drawing 99]	47.9 µM	61.2 µM	
0.0123 µM	0.0299 µM	0.0118 µM	0.002 µM		0.13 µM	CCOc1cc(-c2ccc(NS(=O)(=O)c3cc(OC)ccc3F)cc2)cc2[nH]nc(N)c12			
